Reference: ChEMBL document CHEMBL5512632, “Unlocking the potential of 1,4-naphthoquinones: A comprehensive review of their anticancer properties” (Eur J Med Chem, 2024)
Each block holds one compound with its values, some of them ahead of it.

Assays:
[1] = test system: HeLa; assay: Cytotoxicity against human HeLa cells incubated for 48 hrs by MTT assay; assay type: functional, cell-based
[2] = test system: HepG2; assay: Cytotoxicity against human HepG2 cells incubated for 48 hrs by MTT assay; assay type: functional, cell-based; conditions: HepG2, 48 h
[3] = test system: Huh-7; assay: Cytotoxicity against human Huh-7 cells assessed as inhibition of cell growth incubated for 72 hrs by resazurin assay; assay type: functional, cell-based; conditions: Huh-7, 72 h
[4] = test system: MDA-MB-231; assay: Cytotoxicity against human MDA-MB-231 cells assessed as inhibition of cell growth incubated for 72 hrs by resazurin assay; assay type: functional, cell-based; conditions: MDA-MB-231, 72 h
[5] = test system: MCF7; assay: Cytotoxicity against human MCF7 cells assessed as inhibition of cell growth incubated for 72 hrs by resazurin assay; assay type: functional, cell-based; conditions: MCF7, 72 h
[6] = test system: U-87 MG; assay: Cytotoxicity against human U87 cells assessed as inhibition of cell growth incubated for 72 hrs by resazurin assay; assay type: functional, cell-based, U-87MG ATCC
[7] = test system: HCT-116; assay: Cytotoxicity against human HCT-116 cells assessed as inhibition of cell growth incubated for 72 hrs by resazurin assay; assay type: functional, cell-based; conditions: HCT-116, 72 h
[8] = test system: HeLa; assay: Cytotoxicity against human HeLa cells incubated for 48 hrs by MTT microplate reader assay; assay type: functional, cell-based
[9] = test system: MCF7; assay: Antiproliferative activity against human MCF7 cells assessed as inhibition of cell growth incubated for 72 hrs by Sulforhodamine B assay; assay type: functional, cell-based; conditions: MCF7, 72 h
[10] = test system: B16-F10; assay: Antiproliferative activity against mouse B16-F10 cells assessed as inhibition of cell growth incubated for 72 hrs by Sulforhodamine B assay; assay type: functional, cell-based; conditions: B16-F10, 72 h
[11] = test system: SK-BR-3; assay: Antiproliferative activity against human SK-BR-3 cells assessed as inhibition of cell growth incubated for 72 hrs by Sulforhodamine B assay; assay type: functional, cell-based; conditions: SK-BR-3, 72 h
[12] = test system: MDA-MB-231; assay: Antiproliferative activity against human MDA-MB-231 cells assessed as inhibition of cell growth incubated for 72 hrs by Sulforhodamine B assay; assay type: functional, cell-based; conditions: MDA-MB-231, 72 h
[13] = test system: A549; assay: Antiproliferative activity against human A549 cells assessed as inhibition of cell growth incubated for 72 hrs by Sulforhodamine B assay; assay type: functional, cell-based; conditions: A549, 72 h
[14] = Antiproliferative activity against human HGF cells assessed as inhibition of cell growth incubated for 72 hrs by Sulforhodamine B assay; assay type: toxicity, cell-based
[15] = test system: C6; assay: Antiproliferative activity against rat C6 cells assessed as inhibition of cell growth incubated for 72 hrs by Sulforhodamine B assay; assay type: functional, cell-based; conditions: C6, 72 h
[16] = test system: MDA-MB-231; assay: Growth inhibition of human MDA-MB-231 cells incubated for 48 hrs by Sulforhodamine B reagent based spectrophotometric assay; assay type: functional
[17] = test system: MCF7; assay: Growth inhibition of human MCF7 cells incubated for 48 hrs by Sulforhodamine B reagent based spectrophotometric assay; assay type: functional
[18] = test system: HepG2; assay: Antiproliferative activity against human HepG2 cells assessed as inhibition of cell growth incubated for 48 hrs by MTT reagent based spectrophotometric analysis; assay type: functional; conditions: HepG2, 48 h
[19] = test system: MCF7; assay: Antiproliferative activity against human MCF7 cells assessed as inhibition of cell growth incubated for 48 hrs by MTT reagent based spectrophotometric analysis; assay type: functional; conditions: MCF7, 48 h
[20] = test system: A549; assay: Antiproliferative activity against human A549 cells assessed as inhibition of cell growth incubated for 72 hrs by WST-1 assay; assay type: functional, cell-based; conditions: A549, 72 h
[21] = test system: Caco-2; assay: Antiproliferative activity against human Caco-2 cells assessed as inhibition of cell growth incubated for 72 hrs by WST-1 assay; assay type: functional, cell-based; conditions: Caco-2, 72 h
[22] = test system: T47D; assay: Antiproliferative activity against human T47D cells assessed as inhibition of cell growth incubated for 72 hrs by WST-1 assay; assay type: functional, cell-based
[23] = test system: MDA-MB-231; assay: Antiproliferative activity against human MDA-MB-231 cells assessed as inhibition of cell growth incubated for 72 hrs by WST-1 assay; assay type: functional, cell-based; conditions: MDA-MB-231, 72 h
[24] = test system: MCF7; assay: Antiproliferative activity against human MCF7 cells assessed as inhibition of cell growth incubated for 72 hrs by WST-1 assay; assay type: functional, cell-based; conditions: MCF7, 72 h
[25] = test system: COLO-829; assay: Antiproliferative activity against human COLO-829 cells assessed as inhibition of cell growth incubated for 72 hrs by WST-1 assay; assay type: functional, cell-based; conditions: COLO-829, 72 h
[26] = test system: B16; assay: Antiproliferative activity against mouse B16 cells assessed as inhibition of cell growth incubated for 48 hrs by MTS assay; assay type: functional, cell-based; conditions: B16, 48 h
[27] = test system: HCT-116; assay: Antiproliferative activity against human HCT-116 cells assessed as inhibition of cell growth incubated for 48 hrs by MTS assay; assay type: functional, cell-based; conditions: HCT-116, 48 h
[28] = test system: NCI-H1299; assay: Antiproliferative activity against human NCI-H1299 cells assessed as inhibition of cell growth incubated for 48 hrs by MTS assay; assay type: functional, cell-based; conditions: NCI-H1299, 48 h
[29] = test system: MCF7; assay: Antiproliferative activity against human MCF7 cells assessed as inhibition of cell growth incubated for 48 hrs by MTS assay; assay type: functional, cell-based; conditions: MCF7, 48 h
[30] = test system: HeLa; assay: Antiproliferative activity against human HeLa cells assessed as inhibition of cell growth incubated for 48 hrs by MTS assay; assay type: functional, cell-based
[31] = test system: HT-29; assay: Antiproliferative activity against human HT-29 cells assessed as inhibition of cell growth incubated for 24 hrs by BrdU incorporation assay; assay type: functional, cell-based; conditions: HT-29, 24 h
[32] = test system: HCT-116; assay: Antiproliferative activity against human HCT-116 cells assessed as inhibition of cell growth incubated for 24 hrs by BrdU incorporation assay; assay type: functional, cell-based; conditions: HCT-116, 24 h
[33] = test system: SAOS-2; assay: Antiproliferative activity against human SAOS-2 cells assessed as inhibition of cell growth incubated for 48 hrs by MTT assay; assay type: functional, cell-based; conditions: SAOS-2, 48 h
[34] = test system: SH-SY5Y; assay: Antiproliferative activity against human SH-SY5Y cells assessed as inhibition of cell growth incubated for 48 hrs by MTT assay; assay type: functional, cell-based
[35] = test system: HeLa; assay: Antiproliferative activity against human HeLa cells assessed as inhibition of cell growth incubated for 48 hrs by MTT assay; assay type: functional, cell-based
[36] = test system: U2OS; assay: Antiproliferative activity against human U2OS cells assessed as inhibition of cell growth incubated for 48 hrs by MTT assay; assay type: functional, cell-based
[37] = test system: HCT-116; assay: Antiproliferative activity against human HCT-116 cells assessed as inhibition of cell growth by MTT assay; assay type: functional, cell-based
[38] = test system: SK-OV-3; assay: Antiproliferative activity against human SK-OV-3 cells assessed as inhibition of cell growth incubated for 48 hrs by MTT reagent based spectrophotometric analysis; assay type: functional; conditions: SK-OV-3, 48 h
[39] = test system: A2780; assay: Antiproliferative activity against human A2780 cells assessed as inhibition of cell growth incubated for 48 hrs by MTT reagent based spectrophotometric analysis; assay type: functional; conditions: A2780, 48 h
[40] = test system: OVCAR-3; assay: Antiproliferative activity against human OVCAR-3 cells assessed as inhibition of cell growth incubated for 48 hrs by MTT reagent based spectrophotometric analysis; assay type: functional; conditions: OVCAR-3, 48 h
[41] = test system: K562; assay: Antiproliferative activity against human K562 cells assessed as inhibition of cell growth incubated for 72 hrs by MTT assay; assay type: functional, cell-based; conditions: K562, 72 h

SMILES: C[C@@H](CC[C@H]1O[C@H]2C[C@H]3[C@@H]4CC=C5C[C@@H](O)CC[C@]5(C)[C@H]4CC[C@]3(C)[C@H]2[C@@H]1C)COC1=C(Cl)C(=O)c2ccccc2C1=O
IC50 [1]: 14.1 µM
IC50 [2]: 1.24 µM

SMILES: CCOC(=O)C(NC1=C(Cl)C(=O)c2ccccc2C1=O)C(C)=O (stereo unspecified)
IC50 [3]: 18.3 µM
IC50 [4]: 15.9 µM
IC50 [5]: 24.5 µM
IC50 [6]: 18.9 µM
IC50 [7]: 13.9 µM

SMILES: COc1ccc(C(C2=C(O)C(=O)c3ccccc3C2=O)c2c(C)[nH]n(-c3ccccc3)c2=O)c(O)c1 (stereo unspecified)
IC50 [8]: 2.9 µM

IC50 [9]: 3.33 µM
IC50 [10]: 5.3 µM
IC50 [11]: 0.78 µM
IC50 [12]: 14 µM
IC50 [13]: 8.5 µM
SMILES: CC(=O)OC[C@H]1O[C@H](n2cc(COC3=CC(=O)c4ccccc4C3=O)nn2)[C@H](OC(C)=O)[C@H](OC(C)=O)[C@H]1OC(C)=O
IC50 at 72 h [14]: 17.7 µM
IC50 [15]: 14.7 µM

GI50 [16]: 5 µM
GI50 [17]: 5.8 µM
SMILES: O=C1C(Cl)=C(N2CCN(Cc3ccc4c(c3)OCO4)CC2)C(=O)c2ccccc21

IC50 [18]: 0.07 µM
IC50 [19]: 8.49 µM
SMILES: O=C1C(Cl)=C(NNc2nnc3n2N=C(c2ccc(Cl)cc2)CS3)C(=O)c2ccccc21

SMILES: C=C(C)[C@@H]1CC[C@]2(COC(=O)c3cn(CCCOC4=C(Cl)C(=O)c5ccccc5C4=O)nn3)CC[C@]3(C)[C@H](CC[C@@H]4[C@@]5(C)CC[C@H](O)C(C)(C)[C@@H]5CC[C@]43C)[C@@H]12
IC50 [20]: 1.86 µM
IC50 [21]: 12.2 µM
IC50 [22]: 2.41 µM
IC50 [23]: 10 µM
IC50 [24]: 11.7 µM
IC50 [25]: 12.5 µM

IC50 [26]: 0.104 µM
IC50 [27]: 0.088 µM
IC50 [28]: 0.109 µM
IC50 [29]: 0.069 µM
IC50 [30]: 0.122 µM
SMILES: CN(C)C(=S)SCC1=C(CSC(=S)N(C)C)C(=O)c2ccccc2C1=O

IC50 [31]: 23.2 µM
IC50 [32]: 10.3 µM
SMILES: O=C1C(Cl)=C(Oc2ccc(-c3oc4cc(O)cc(O)c4c(=O)c3O)cc2O)C(=O)c2ccccc21

IC50 [34]: 0.87 µM
IC50 [35]: 0.54 µM
IC50 [36]: 1.81 µM
SMILES: CC(=O)N[C@@H](CSC1=CC(=O)c2ccccc2C1=O)C(=O)O
IC50 [33]: 1.67 µM

IC50 [37]: 5.32 µM
SMILES: O=C1C=C(Sc2ccc([N+](=O)[O-])cc2)C(=O)c2ccccc21

IC50 [38]: 2.8 µM
IC50 [39]: 5.6 µM
IC50 [40]: 6.8 µM
SMILES: O=C1C=C(N(Cc2ccccn2)Cc2ccccn2)C(=O)c2ccccc21

IC50 [41]: 5.8 µM
SMILES: O=C1C=C(Nc2ccc(S(=O)(=O)c3ccc(NC(=S)N4CCCCC4)cc3)cc2)C(=O)c2ccccc21
